Test results published in patent US20180228861A1, “COMPOSITION FOR TREATING DIABETES AND DYSLIPIDEMIA OBTAINED FROM THE EXTRACT OF COSTUS PICTUS D.DON PLANT AND A METHOD OF PREPARING THE SAME” (ARJUNA NATURAL EXTRACTS, LTD., priority 2012, published 2018).

How the values were obtained:
[1] = test system: isolated mouse islets; experiment: In vitro insulin secretogogue effect using isolated mouse islets; type: cell-based, mice (Swiss albino strain); details: 10 nM
Text: In vitro insulin secretogogue effect of the different fractions of Costus pictus D. Don using isolated mouse islets.
Four to six weeks old male mice (Swiss albino strain; weighing 25±2 g) used for the study were maintained in the optimum environmental conditions.
Pancreata isolated from animals which were euthanized with CO2 anesthesia according the method of Shewadae et al., (1999) was removed aspectically. Washed thrice with Hank's Balanced Salt Solution (HBSS) and were subjected to collagenase digestion at 37° C. The pancreata was incubated in the dissociation medium (Dulbecco's modified minimum essential medium (DMEM) supplemented with collagenase, Soybean Trypsin Inhibitor and Bovine Serum Albumin fraction V) for 10 minutes. The procedure was repeated thrice and the dissociation was stopped by addition of chilled DMEM with 10% fetal bovine serum to the pancreatic digest. The mixture was centrifuged at 200×g for 10 minutes and the supernatant was discarded. After two washings with DMEM, the pellet was seeded in culture flasks containing DMEM pH-7.2 supplemented with 10% fetal bovine serum. The flasks were incubated at 37° C. in a CO2 incubator.
The viability of the islets was checked by Trypan blue dye exclusion test (Warburton and James, 1995) and this estimate had shown >98% of the cells were viable. […]

[2] = test system: streptozotocin-induced Type 1 diabetic model in Wistar rats; experiment: Pancreatic histopathology in streptozotocin-induced diabetic rats; type: in vivo; details: for beta cell staining in islet of Langerhans (immune histochemistry, in words): FIG. 13-17
Experimental: (§1) The study was conducted in adult male Wistar rats weighing 200-250 gm for a period of 40 days (30 days of treatment and 10 days of induction). The animals were randomly divided into seven groups comprising six each. Diabetes was induced in all the groups except the normal control group by the intra peritoneal administration of streptozotocin at 50 mg/kg. […] The effect of the different fractions was assessed by measuring the fasting blood glucose level, post prandial blood glucose level, serum insulin levels and glycosylated Hb. The anti hyperlipidemic effect was assessed by the estimation of total cholesterol, triglyceride, LDL cholesterol, HDL cholesterol, VLDL, muscle glycogen and liver glycogen. The antioxidant effects of the different extracts were assessed by the measuring TBARS, superoxide dismutase (SOD), catalase, reduced glutathione (GSH) and glutathione peroxidase levels (GPx). TBARS was determined by TBA assay (Ohkawa et al., 1979), SOD was measured using the nitroblue tetrazolium reduction method (Kakkar et al., 1984), Catalase was assayed using the method described by Aebi (1974). GPx was measured as described by Flohe and Gunzler (1984), GSH was measured as per the method of Jollow et al., (1974). Histopathological examination of pancreas was conducted to assess the antidiabetic effect of the different fractions of Costus pictus D. Don.

[3] = test system: streptozotocin-induced Type 1 diabetic model in Wistar rats; experiment: Lipid profile in streptozotocin-induced diabetic rats; type: in vivo; details: extracts 40 mg/kg orally, glibenclamide 3 mg/kg orally
Experimental: as §1

[4] = test system: streptozotocin-induced Type 1 diabetic model in Wistar rats; experiment: Oral glucose tolerance test (post prandial glucose) in streptozotocin-induced diabetic rats; type: in vivo; details: OGTT, glucose 2.5 g/kg oral gavage
Experimental: The study was conducted in adult male Wistar rats weighing 200-250 gm for a period of 40 days (30 days of treatment and 10 days of induction). The animals were randomly divided into seven groups comprising six each. Diabetes was induced in all the groups except the normal control group by the intra peritoneal administration of streptozotocin at 50 mg/kg. After the induction of diabetes, one group was kept as diabetic untreated control and a positive control was maintained in which the animals were treated with standard drug, glibenclamide at 3 mg/kg orally. All the other diabetic induced groups were treated with different extracts at 300 mg/kg orally. The effect of the different fractions was assessed by measuring the fasting blood glucose level, post prandial blood glucose level, serum insulin levels and glycosylated Hb. The anti hyperlipidemic effect was assessed by the estimation of total cholesterol, triglyceride, LDL cholesterol, HDL cholesterol, VLDL, muscle glycogen and liver glycogen. The antioxidant effects of the different extracts were assessed by the measuring TBARS, superoxide dismutase (SOD), catalase, reduced glutathione (GSH) and glutathione peroxidase levels (GPx). TBARS was determined by TBA assay (Ohkawa et al., 1979), SOD was measured using the nitroblue tetrazolium reduction method (Kakkar et al., 1984), Catalase was assayed using the method described by Aebi (1974). GPx was measured as described by Flohe and Gunzler (1984), GSH was measured as per the method of Jollow et al., (1974). Histopathological examination of pancreas was conducted to assess the antidiabetic effect of the different fractions of Costus pictus D. Don.
Oral glucose tolerance test (OGTT) was performed following a glucose challenge of 2.5 g/kg by oral gavage. Blood glucose was recorded at 30 min (PPG1), 60 min (PPG2), 120 min (PPG3) and 240 min (PPG4), after the glucose challenge on day 1, day 15 and day 30 of the study.

[5] = test system: streptozotocin-induced Type 1 diabetic model in Wistar rats; experiment: Muscle and liver glycogen in streptozotocin-induced diabetic rats; type: in vivo; details: extracts 40 mg/kg orally, glibenclamide 3 mg/kg orally
Experimental: as §1

SMILES: COc1ccc(Cl)cc1C(=O)NCCc1ccc(S(=O)(=O)NC(=O)NC2CCCCC2)cc1 [glibenclamide]
- Thirty minutes Concentration of insulin ([1]; thirty minutes): 3.77 ng/mL
- Zero minutes Concentration of insulin ([1]; zero minutes): 0.97 ng/mL
- beta cell staining in islet of Langerhans (immune histochemistry, in words) ([2]; pancreas of streptozotocin-induced diabetic rats): moderately stained and comparable to group 1
- beta cell staining in islet of Langerhans (immune histochemistry, in words) ([2]; pancreas of streptozotocin-induced diabetic rats, listed as Glibenclamide): moderately stained beta cells
- mean number of islets ([2]; pancreas of streptozotocin-induced diabetic rats, normal group 36, untreated diabetic group 5): 18.66
- appearance of islets in pancreas sections (in words) ([2]; versus untreated diabetic control): less shrunken than the untreated diabetic control group
- HDL ([3]; HDL cholesterol): 52 mg/dL
- LDL ([3]; LDL cholesterol): 56 mg/dL
- VLDL [3]: 20 mg/dL
- TC ([3]; total cholesterol): 128 mg/dL
- TG ([3]; triglyceride): 100 mg/dL
- PPG1. 1 ([4]; blood glucose at 30 min, day 1): 522.8
- PPG1. 15 ([4]; blood glucose at 30 min, day 15): 318.3
- PPG1. 30 ([4]; blood glucose at 30 min, day 30): 232.1
- PPG2. 1 ([4]; blood glucose at 60 min, day 1): 478.4
- PPG2. 15 ([4]; blood glucose at 60 min, day 15): 217.4
- PPG2. 30 ([4]; blood glucose at 60 min, day 30): 240.4
- PPG3. 1 ([4]; blood glucose at 120 min, day 1): 332.1
- PPG3. 15 ([4]; blood glucose at 120 min, day 15): 115.3
- PPG3. 30 ([4]; blood glucose at 120 min, day 30): 177.3
- PPG4. 1 ([4]; blood glucose at 240 min, day 1): 201.9
- PPG4. 15 ([4]; blood glucose at 240 min, day 15): 104.8
- PPG4. 30 ([4]; blood glucose at 240 min, day 30): 69.8
- Liver glycogen [5]: 46 mg/g tissue
- Muscle glycogen [5]: 8 mg/g tissue
